Laboratory results: patent US10202378B2, “Therapeutic compounds and uses thereof” (GENENTECH, INC., priority 2015, dated 2019)

Columns and labels:
TAF1-BD2 = TAF1-BD2 (Homo sapiens, UniProt P21675); test: TAF1-BD2 TR-FRET Binding Assay; conditions: read-out: TAF1-BD2 HTRF IC50
Protocol: IC50 Measurements for Inhibitors Using TAF1-BD2 TR-FRET Binding Assay
His/Flag epitope tagged TAF1-BD21504-1635 was cloned, expressed, and purified to homogeneity. TAF1-BD2 binding and inhibition was assessed by monitoring the engagement of a biotinylated small molecule compound 1000 with the target using the TR-FRET assay technology (Perkin-Elmer). Specifically, in a 384 well ProxiPlate, TAF1-BD2 (0.012 uM final) in 50 mM HEPES (pH 7.5; final), 50 mM NaCl (final), 1 mM TCEP (final), 0.1 mg/mL BSA (final), and 0.069 mM Brij-35 (final) was added either in the presence of DMSO (final 0.2% DMSO) or compound dilution series in DMSO. After a 10 minute incubation at room temperature, biotin-ligand (0.04 uM final) was added. After 10 minutes incubation at room temperature, a mixture Eu-W1024 Anti-6×His antibody (Perkin Elmer AD0110) and SureLight™ Streptavidin-Allophycocyanin (SA-APC, Perkin Elmer CR130-100) were added to a final concentration of 0.2 nM antibody and 0.025 uM SA-APC, respectively. After forty minutes of equilibration at room temperature, the plates were read on an Envision instrument and IC50s calculated using a four parameter logistic model (XLFIT).

TAF1-BD1 = TAF1-BD1 (Homo sapiens, UniProt P21675); test: TAF1-BD1 TR-FRET Binding Assay; conditions: read-out: TAF1-BD1 HTRF IC50
Protocol: IC50 Measurements for Inhibitors Using TAF1-BD1 TR-FRET Binding Assay
His/Flag epitope tagged TAF1-BD11381-1497 was cloned, expressed, and purified to homogeneity. TAF1-BD binding and inhibition was assessed by monitoring the engagement of a biotinylated small molecule compound 1000 with the target using the TR-FRET assay technology (Perkin-Elmer). Specifically, in a 384 well ProxiPlate, TAF1-BDI (0.08 uM final) in 50 mM HEPES (pH 7.5; final), 50 mM NaCl (final), 1 mM TCEP (final), 0.1 mg/mL BSA (final), and 0.069 mM Brij-35 (final) was added either in the presence of DMSO (final 0.2% DMSO) or compound dilution series in DMSO. After a 10 minute incubation at room temperature, biotin-ligand (0.08 uM final) was added. After 10 minutes incubation at room temperature, a mixture Eu-W1024 Anti-6×His antibody (Perkin Elmer ADO 110) and SureLight™ Streptavidin-Allophycocyanin (SA-APC, Perkin Elmer CR130-100) were added to final concentrations of 0.2 nM antibody and 0.05 uM SA-APC, respectively. After forty minutes of equilibration at room temperature, the plates were read on an Envision instrument and IC50s calculated using a four parameter logistic model (XLFIT).

| Structure (SMILES) | IC50 (TAF1-BD2) [µM] | IC50 (TAF1-BD1) [µM] |
| --- | --- | --- |
| CCOC(=O)c1c(C)[nH]c2c(=O)n(C)cc(C#CC(C)(O)COc3ccccc3)c12 (centres unmarked) [Example 17, ethyl 4-(3-hydroxy-3-methyl-4-phenoxy-but-1-ynyl)-2,6-dimethyl-7-oxo-1H-pyrrolo[2,3-c]pyridine-3-carboxylate] | 0.0673 | 0.404 |
| CCOC(=O)c1c(C)[nH]c2c(=O)n(C)cc(C#CC3(O)CC3)c12 [Example 18, ethyl 4-[2-(1-hydroxycyclopropyl)ethynyl]-2,6-dimethyl-7-oxo-1H-pyrrolo[2,3-c]pyridine-3-carboxylate] | 0.0854 | 0.632 |
| CCOC(=O)c1c(C)[nH]c2c(=O)n(C)cc(C#CC(C)(O)c3cccc(C#N)c3)c12 (centres unmarked) [Example 19, ethyl 4-[3-(3-cyanophenyl)-3-hydroxy-but-1-ynyl]-2,6-dimethyl-7-oxo-1H-pyrrolo[2,3-c]pyridine-3-carboxylate] | 0.0303 | 0.146 |
| CCOC(=O)c1c(C)[nH]c2c(=O)n(C)cc(C#CC3(O)CCCC3)c12 [Example 20, ethyl 4-[2-(1-hydroxycyclopentyl)ethynyl]-2,6-dimethyl-7-oxo-1H-pyrrolo[2,3-c]pyridine-3-carboxylate] | 0.0219 | 0.282 |
| CCOC(=O)c1c(C)[nH]c2c(=O)n(C)cc(C#CC3(O)CCC3)c12 [Example 21, ethyl 4-[2-(1-hydroxycyclobutyl)ethynyl]-2,6-dimethyl-7-oxo-1H-pyrrolo[2,3-c]pyridine-3-carboxylate] | 0.0611 | 0.407 |
| CCOC(=O)c1c(C)[nH]c2c(=O)n(C)cc(C#CC(C)(C)NC(C)=O)c12 [Example 22, ethyl 4-(3-acetamido-3-methyl-but-1-ynyl)-2,6-dimethyl-7-oxo-1H-pyrrolo[2,3-c]pyridine-3-carboxylate] | 0.523 | 0.804 |
| CCOC(=O)c1c(C)[nH]c2c(=O)n(C)cc(C#CC(C)(O)CCc3ccccc3)c12 (centres unmarked) [Example 23, ethyl 4-(3-hydroxy-3-methyl-5-phenyl-pent-1-ynyl)-2,6-dimethyl-7-oxo-1H-pyrrolo[2,3-c]pyridine-3-carboxylate] | 0.0586 | 0.182 |
| CCOC(=O)c1c(C)[nH]c2c(=O)n(C)cc(C#CC(O)(CC)CC)c12 [Example 24, ethyl 4-(3-ethyl-3-hydroxy-pent-1-ynyl)-2,6-dimethyl-7-oxo-1H-pyrrolo[2,3-c]pyridine-3-carboxylate] | 0.138 | 0.536 |
| CCOC(=O)c1c(C)[nH]c2c(=O)n(C)cc(C#CC(C)(C)OCc3ccccc3)c12 [Example 25, ethyl 4-(3-benzyloxy-3-methyl-but-1-ynyl)-2,6-dimethyl-7-oxo-1H-pyrrolo[2,3-c]pyridine-3-carboxylate] | 0.373 | 0.848 |
| CCOC(=O)c1c(C)[nH]c2c(=O)n(C)cc(C#CC(C)(C)OC)c12 [Example 26, ethyl 4-(3-methoxy-3-methyl-but-1-ynyl)-2,6-dimethyl-7-oxo-1H-pyrrolo[2,3-c]pyridine-3-carboxylate] | 0.284 | 0.503 |
| CCOC(=O)c1c(C)[nH]c2c(=O)n(C)cc(C#CC(C)(O)c3cccnc3)c12 (centres unmarked) [Example 28, ethyl 4-[3-hydroxy-3-(3-pyridyl)but-1-ynyl]-2,6-dimethyl-7-oxo-1H-pyrrolo[2,3-c]pyridine-3-carboxylate] | 0.0525 | 0.234 |
| CCOC(=O)c1c(C)[nH]c2c(=O)n(C)cc(C#CC3(O)COC3)c12 [Example 30, ethyl 4-[2-(3-hydroxyoxetan-3-yl)ethynyl]-2,6-dimethyl-7-oxo-1H-pyrrolo[2,3-c]pyridine-3-carboxylate] | 0.0873 | 0.634 |
| CCOC(=O)c1c(C)[nH]c2c(=O)n(C)cc(C#CC(C)(C)C(=O)NC)c12 [Example 32, ethyl 4-[3,3-dimethyl-4-(methylamino)-4-oxo-but-1-ynyl]-2,6-dimethyl-7-oxo-1H-pyrrolo[2,3-c]pyridine-3-carboxylate] | 1.32 | 0.802 |
